Measured values taken from ChEMBL document CHEMBL5344409, “Discovery of pan-IAP degraders via a CRBN recruiting mechanism” (2023).
Calls of active or inactive are those of the source. The rule behind the calls is not given here.

Tests used:
[1] = target: T1, Protein cereblon/E3 ubiquitin-protein ligase XIAP (Homo sapiens) (UniProt P98170+Q96SW2); test: PROTAC activity at CRBN/XIAP in human MCF7 cells assessed as induction of XIAP degradation at 1 uM measured after 18 hrs by western blot analysis; assay type: cell-based
T1 sequence (P98170 whole entry, looked up): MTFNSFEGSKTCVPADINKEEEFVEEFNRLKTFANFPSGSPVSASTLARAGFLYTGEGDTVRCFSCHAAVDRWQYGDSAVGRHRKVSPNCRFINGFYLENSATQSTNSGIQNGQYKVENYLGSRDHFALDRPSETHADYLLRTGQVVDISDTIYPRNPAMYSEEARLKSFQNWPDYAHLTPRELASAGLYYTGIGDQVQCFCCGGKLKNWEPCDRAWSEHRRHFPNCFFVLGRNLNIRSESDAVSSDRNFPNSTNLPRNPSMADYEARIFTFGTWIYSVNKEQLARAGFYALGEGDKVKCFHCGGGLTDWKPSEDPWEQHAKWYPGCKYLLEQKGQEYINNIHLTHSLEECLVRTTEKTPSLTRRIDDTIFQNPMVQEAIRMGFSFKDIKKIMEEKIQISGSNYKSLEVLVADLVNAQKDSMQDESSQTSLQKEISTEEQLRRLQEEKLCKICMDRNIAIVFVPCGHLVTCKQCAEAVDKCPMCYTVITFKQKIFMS
T1 sequence (Q96SW2 whole entry, looked up): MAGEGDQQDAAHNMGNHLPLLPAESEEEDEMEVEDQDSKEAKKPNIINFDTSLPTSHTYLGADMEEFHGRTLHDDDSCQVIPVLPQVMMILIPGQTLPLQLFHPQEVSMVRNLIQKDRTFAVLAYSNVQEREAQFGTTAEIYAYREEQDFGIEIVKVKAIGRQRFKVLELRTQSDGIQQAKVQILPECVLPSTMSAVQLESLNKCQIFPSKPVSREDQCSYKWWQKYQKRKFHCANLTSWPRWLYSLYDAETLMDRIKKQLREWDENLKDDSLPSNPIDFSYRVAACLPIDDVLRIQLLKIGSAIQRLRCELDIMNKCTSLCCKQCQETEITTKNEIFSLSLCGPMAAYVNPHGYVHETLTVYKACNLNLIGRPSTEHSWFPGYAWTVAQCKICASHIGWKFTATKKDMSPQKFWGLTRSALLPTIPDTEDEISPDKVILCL

[2] = target: Protein cereblon/Baculoviral IAP repeat-containing protein 3 (Homo sapiens) (UniProt Q13489+Q96SW2); test: PROTAC activity at CRBN/cIAP2 in human MCF7 cells assessed as induction of cIAP2 degradation at 1 uM measured after 18 hrs by western blot analysis; assay type: cell-based
Protein cereblon/Baculoviral IAP repeat-containing protein 3 (Homo sapiens), sequence (Q13489 whole entry, looked up): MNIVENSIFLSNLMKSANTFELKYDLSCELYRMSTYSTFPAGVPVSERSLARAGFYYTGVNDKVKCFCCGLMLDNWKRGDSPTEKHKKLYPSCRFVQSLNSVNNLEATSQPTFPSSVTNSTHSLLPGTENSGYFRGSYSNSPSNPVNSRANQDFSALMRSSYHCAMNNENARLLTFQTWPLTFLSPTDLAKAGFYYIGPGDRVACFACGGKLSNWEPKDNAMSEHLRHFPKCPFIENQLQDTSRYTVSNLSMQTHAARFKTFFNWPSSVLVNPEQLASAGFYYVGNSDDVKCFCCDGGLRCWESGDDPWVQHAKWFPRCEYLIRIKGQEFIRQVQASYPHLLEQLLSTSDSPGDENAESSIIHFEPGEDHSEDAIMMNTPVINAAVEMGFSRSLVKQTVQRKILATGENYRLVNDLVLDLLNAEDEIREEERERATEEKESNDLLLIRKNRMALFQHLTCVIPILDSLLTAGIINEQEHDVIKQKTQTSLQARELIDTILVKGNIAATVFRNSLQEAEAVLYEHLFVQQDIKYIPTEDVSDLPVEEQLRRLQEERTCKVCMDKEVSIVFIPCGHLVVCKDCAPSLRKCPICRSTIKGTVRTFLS
Protein cereblon/Baculoviral IAP repeat-containing protein 3 (Homo sapiens), sequence (Q96SW2 whole entry, looked up): as the sequence (Q96SW2 whole entry, looked up) above

[3] = target: Baculoviral IAP repeat-containing protein 2 (Homo sapiens) (UniProt Q13490); test: Induction of cIAP1 degradation in human MCF7 cells at 0.1 uM measured after 18 hrs by western blot analysis; assay type: cell-based
Baculoviral IAP repeat-containing protein 2 (Homo sapiens), sequence (Q13490 whole entry): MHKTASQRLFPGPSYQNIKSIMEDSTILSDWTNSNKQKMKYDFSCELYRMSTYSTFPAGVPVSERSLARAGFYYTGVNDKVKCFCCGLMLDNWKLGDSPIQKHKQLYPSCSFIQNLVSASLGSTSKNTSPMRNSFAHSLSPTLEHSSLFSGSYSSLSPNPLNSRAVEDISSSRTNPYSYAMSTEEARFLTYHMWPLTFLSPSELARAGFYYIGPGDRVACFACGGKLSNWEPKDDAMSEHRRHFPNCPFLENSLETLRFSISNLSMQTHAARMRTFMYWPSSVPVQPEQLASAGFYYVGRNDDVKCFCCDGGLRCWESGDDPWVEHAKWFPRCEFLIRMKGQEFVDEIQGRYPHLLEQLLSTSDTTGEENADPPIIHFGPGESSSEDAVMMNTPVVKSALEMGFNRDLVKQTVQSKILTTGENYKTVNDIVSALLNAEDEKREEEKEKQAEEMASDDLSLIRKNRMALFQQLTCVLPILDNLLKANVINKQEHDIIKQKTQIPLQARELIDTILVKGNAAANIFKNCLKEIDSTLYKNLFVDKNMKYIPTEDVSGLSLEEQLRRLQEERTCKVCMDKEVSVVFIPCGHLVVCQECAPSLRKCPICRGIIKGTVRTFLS

[4] = target: Baculoviral IAP repeat-containing protein 2 (Homo sapiens) (UniProt Q13490); test: Induction of cIAP1 degradation in human MCF7 cells at 1 uM measured after 18 hrs by western blot analysis; assay type: cell-based
[5] = target: Baculoviral IAP repeat-containing protein 2 (Homo sapiens) (UniProt Q13490); test: Induction of cIAP1 degradation in human MCF7 cells at 0.1 to 10 uM measured after 18 hrs by western blot analysis; assay type: cell-based; details: dose 0.1-10 µM
[6] = target: T1, Protein cereblon/E3 ubiquitin-protein ligase XIAP (Homo sapiens); test: PROTAC activity at CRBN/XIAP in human MCF7 cells assessed as induction of XIAP degradation at 0.1 to 10 uM measured after 18 hrs by western blot analysis; assay type: cell-based; details: dose 0.1-10 µM
[7] = target: Baculoviral IAP repeat-containing protein 2 (Homo sapiens) (UniProt Q13490); test: Induction of cIAP1 degradation in human MCF7 cells at 0.1 uM measured within 1 hr by western blot analysis; assay type: cell-based
[8] = target: Baculoviral IAP repeat-containing protein 2 (Homo sapiens) (UniProt Q13490); test: Induction of cIAP1 degradation in human MCF7 cells transfected with CRBN siRNA at 0.01 to 1 uM measured after 18 hrs by western blot analysis; assay type: cell-based; details: dose 0.01-1 µM
[9] = target: Protein cereblon/Baculoviral IAP repeat-containing protein 2 (Homo sapiens) (UniProt Q13490+Q96SW2); test: Binding affinity to CRBN/cIAP1 in human HEK293T cells assessed as ternary complex formation at 1 uM measured after 6 hrs by immunoprecipitation analysis; assay type: cell-based
Protein cereblon/Baculoviral IAP repeat-containing protein 2 (Homo sapiens), sequence (Q13490 whole entry, looked up): as the sequence (Q13490 whole entry) above
Protein cereblon/Baculoviral IAP repeat-containing protein 2 (Homo sapiens), sequence (Q96SW2 whole entry, looked up): as the sequence (Q96SW2 whole entry, looked up) above

[10] = target: T1, Protein cereblon/E3 ubiquitin-protein ligase XIAP (Homo sapiens); test: PROTAC activity at CRBN/XIAP in human MCF7 cells assessed as protein abundance at 1 uM measured after 4 hrs by TMT-labeling based LC-MS/MS analysis; assay type: cell-based
MCF7 [11] = test: Induction of apoptosis in human MCF7 cells assessed as increase in caspase 7 cleavage at 0.1 uM measured after 18 hrs by western blot analysis; assay type: functional, cell-based
MCF7 [12] = test: Induction of apoptosis in human MCF7 cells assessed as increase in PARP cleavage at 0.1 uM measured after 18 hrs by western blot analysis; assay type: functional, cell-based
MCF7 [13] = test: Cytotoxicity against human MCF7 cells assessed as inhibition of cell growth measured after 72 hrs by CellTiter-Glo luminescent assay; assay type: functional
MCF7 [14] = test: Induction of apoptosis in human MCF7 cells assessed as increase in caspase-7 cleavage at 1 uM measured after 6 hrs in presence of TNF-alpha by western blot analysis; assay type: functional, cell-based
[15] = target: Protein cereblon-IAP (Homo sapiens) (UniProt P98170+Q13489+Q13490+Q96SW2); test: PROTAC activity at CRBN/IAP in human MCF7 cells assessed as inhibition of TNFalpha-induced NFkappaB activation by measuring decrease in p38 phosphorylation at 0.1 uM pretreated for 2 hrs followed by stimulation with TNF-alpha for 3 mins by western blot analysis; assay type: cell-based; details: time 123.0 min
Protein cereblon-IAP (Homo sapiens), sequence (P98170 whole entry, looked up): as the sequence (P98170 whole entry, looked up) above
Protein cereblon-IAP (Homo sapiens), sequence (Q13489 whole entry, looked up): as the sequence (Q13489 whole entry, looked up) above
Protein cereblon-IAP (Homo sapiens), sequence (Q13490 whole entry, looked up): as the sequence (Q13490 whole entry) above
Protein cereblon-IAP (Homo sapiens), sequence (Q96SW2 whole entry, looked up): as the sequence (Q96SW2 whole entry, looked up) above

MCF7 [16] = test: Inhibition of TNFalpha-induced cytokine mRNA expression in human MCF7 cells assessed as decrease in IL-6 mRNA level by quantitative real-time PCR analysis; assay type: functional, cell-based

Activity [1]: 99%
Activity [2]: 97%
Activity [3]: 87%
Activity [4]: 90%
Activity [5]: Active
Activity [6]: Active
Activity [7]: > 90%
Activity [8]: Active
Activity [9]: inactive
fold change (FC) [10]: > 2
Activity [15]: Active
Structure (SMILES): CN[C@@H](C)C(=O)N[C@H](C(=O)N1Cc2cc(OCCCCCCCCNC(=O)C3CN(c4ccc5c(c4)C(=O)N(C4CCC(=O)NC4=O)C5=O)C3)ccc2C[C@H]1C(=O)N[C@@H]1CCCc2ccccc21)C(C)(C)C (stereo partly specified)
Activity (MCF7 [11]): Active
Activity (MCF7 [12]): Active
GI50 (MCF7 [13]): 396 nM
Activity (MCF7 [14]): Active
inhibition (MCF7 [16]): Active
